Data published in patent US20110173718A1, “HERBICIDE TOLERANT PLANTS” (SYNGENTA CROP PROTECTION, INC., priority 2008, published 2011).

System: weeds
Assay: Glasshouse weed control by HST/HPPD (mesotrione) mixtures, pre-emergence
Type: in vivo
Details: for colby: Colby synergy score; for % Damage at 14 DAA, 1 g ai ha^−1 mesotrione / % Damage at 14 DAA, no-mesotrione: N = 3
Experimental: Weed seeds are planted out in trays containing suitable soil (for example 50% peat, 50% John Innes soil no 3) and grown in the glass house conditions under 24-27° C. day; 18-21° C. night and approximately a 14 h (or longer in UK summer) photoperiod. Humidity is ˜65% and light levels up to 2000 μmol/m^2 at bench level. Trays are sprayed with test chemicals dissolved in water with 0.2-0.25% X-77 surfactant and sprayed from a boom on a suitable track sprayer moving at about 2 mph in a suitable track sprayer (for example a DeVries spray chamber with the nozzle about 2 inches from the plant tops). Spray volume is suitably 500-1000 l/ha. Sprays are carried out both pre-emergence and over small plants at about 7-12 d post-emergence
Plants are assessed 14 DAT and herbicidal damage is scored on a scale from 0 to 100%. The HST inhibitor compound 2.30 (designated compound A in table 16 and 17), haloxydine (compound 1.1) and compound 2.13 (designated compound AE in tables 16 and 17) are sprayed at rates between 0 and 500 g/ha.

[1] = ALOMY, 16 g/ha + mesotrione 1 g ai/ha
[2] = ALOMY, 31 g/ha + mesotrione 1 g ai/ha
[3] = ALOMY, 63 g/ha + mesotrione 1 g ai/ha
[4] = ALOMY, 125 g/ha + mesotrione 1 g ai/ha
[5] = ALOMY, 250 g/ha + mesotrione 1 g ai/ha
[6] = ALOMY, 500 g/ha + mesotrione 1 g ai/ha
[7] = AMARE, 16 g/ha + mesotrione 1 g ai/ha
[8] = AMARE, 31 g/ha + mesotrione 1 g ai/ha
[9] = AMARE, 63 g/ha + mesotrione 1 g ai/ha
[10] = AMARE, 125 g/ha + mesotrione 1 g ai/ha
[11] = AMARE, 250 g/ha + mesotrione 1 g ai/ha
[12] = AMARE, 500 g/ha + mesotrione 1 g ai/ha
[13] = ECHCG, 16 g/ha + mesotrione 1 g ai/ha
[14] = ECHCG, 31 g/ha + mesotrione 1 g ai/ha
[15] = ECHCG, 63 g/ha + mesotrione 1 g ai/ha
[16] = ECHCG, 125 g/ha + mesotrione 1 g ai/ha
[17] = ECHCG, 250 g/ha + mesotrione 1 g ai/ha
[18] = ECHCG, 500 g/ha + mesotrione 1 g ai/ha
[19] = IPOHE, 16 g/ha + mesotrione 1 g ai/ha
[20] = IPOHE, 31 g/ha + mesotrione 1 g ai/ha
[21] = IPOHE, 63 g/ha + mesotrione 1 g ai/ha
[22] = IPOHE, 125 g/ha + mesotrione 1 g ai/ha
[23] = IPOHE, 250 g/ha + mesotrione 1 g ai/ha
[24] = IPOHE, 500 g/ha + mesotrione 1 g ai/ha
[25] = SETFA, 16 g/ha + mesotrione 1 g ai/ha
[26] = SETFA, 31 g/ha + mesotrione 1 g ai/ha
[27] = SETFA, 63 g/ha + mesotrione 1 g ai/ha
[28] = SETFA, 125 g/ha + mesotrione 1 g ai/ha
[29] = SETFA, 250 g/ha + mesotrione 1 g ai/ha
[30] = SETFA, 500 g/ha + mesotrione 1 g ai/ha
[31] = SOLNI, 16 g/ha + mesotrione 1 g ai/ha
[32] = SOLNI, 31 g/ha + mesotrione 1 g ai/ha
[33] = SOLNI, 63 g/ha + mesotrione 1 g ai/ha
[34] = SOLNI, 125 g/ha + mesotrione 1 g ai/ha
[35] = SOLNI, 250 g/ha + mesotrione 1 g ai/ha
[36] = SOLNI, 500 g/ha + mesotrione 1 g ai/ha

O=c1c(Cl)c(F)[nH]c(F)c1Cl [Haloxidine]
colby [1]: 5%
% Damage at 14 DAA, 1 g ai ha^−1 mesotrione [1]: 8%
% Damage at 14 DAA, no-mesotrione (ALOMY, 16 g/ha): 3%
colby [2]: 12%
% Damage at 14 DAA, 1 g ai ha^−1 mesotrione [2]: 25%
% Damage at 14 DAA, no-mesotrione (ALOMY, 31 g/ha): 13%
colby [3]: 8%
% Damage at 14 DAA, 1 g ai ha^−1 mesotrione [3]: 50%
% Damage at 14 DAA, no-mesotrione (ALOMY, 63 g/ha): 42%
colby [4]: 10%
% Damage at 14 DAA, 1 g ai ha^−1 mesotrione [4]: 77%
% Damage at 14 DAA, no-mesotrione (ALOMY, 125 g/ha): 67%
colby [5]: −3%
% Damage at 14 DAA, 1 g ai ha^−1 mesotrione [5]: 78%
% Damage at 14 DAA, no-mesotrione (ALOMY, 250 g/ha): 82%
colby [6]: −2%
% Damage at 14 DAA, 1 g ai ha^−1 mesotrione [6]: 83%
% Damage at 14 DAA, no-mesotrione (ALOMY, 500 g/ha): 85%
colby [7]: 2%
% Damage at 14 DAA, 1 g ai ha^−1 mesotrione [7]: 42%
% Damage at 14 DAA, no-mesotrione (AMARE, 16 g/ha): 38%
colby [8]: 1%
% Damage at 14 DAA, 1 g ai ha^−1 mesotrione [8]: 75%
% Damage at 14 DAA, no-mesotrione (AMARE, 31 g/ha): 73%
colby [9]: 5%
% Damage at 14 DAA, 1 g ai ha^−1 mesotrione [9]: 93%
% Damage at 14 DAA, no-mesotrione (AMARE, 63 g/ha): 88%
colby [10]: 0%
% Damage at 14 DAA, 1 g ai ha^−1 mesotrione [10]: 100%
% Damage at 14 DAA, no-mesotrione (AMARE, 125 g/ha): 100%
colby [11]: 0%
% Damage at 14 DAA, 1 g ai ha^−1 mesotrione [11]: 100%
% Damage at 14 DAA, no-mesotrione (AMARE, 250 g/ha): 100%
colby [12]: 0%
% Damage at 14 DAA, 1 g ai ha^−1 mesotrione [12]: 100%
% Damage at 14 DAA, no-mesotrione (AMARE, 500 g/ha): 100%
colby [13]: 7%
% Damage at 14 DAA, 1 g ai ha^−1 mesotrione [13]: 20%
% Damage at 14 DAA, no-mesotrione (ECHCG, 16 g/ha): 13%
colby [14]: −2%
% Damage at 14 DAA, 1 g ai ha^−1 mesotrione [14]: 23%
% Damage at 14 DAA, no-mesotrione (ECHCG, 31 g/ha): 25%
colby [15]: 13%
% Damage at 14 DAA, 1 g ai ha^−1 mesotrione [15]: 53%
% Damage at 14 DAA, no-mesotrione (ECHCG, 63 g/ha): 40%
colby [16]: 5%
% Damage at 14 DAA, 1 g ai ha^−1 mesotrione [16]: 78%
% Damage at 14 DAA, no-mesotrione (ECHCG, 125 g/ha): 73%
colby [17]: −8%
% Damage at 14 DAA, 1 g ai ha^−1 mesotrione [17]: 83%
% Damage at 14 DAA, no-mesotrione (ECHCG, 250 g/ha): 92%
colby [18]: 7%
% Damage at 14 DAA, 1 g ai ha^−1 mesotrione [18]: 95%
% Damage at 14 DAA, no-mesotrione (ECHCG, 500 g/ha): 88%
colby [19]: 0%
% Damage at 14 DAA, 1 g ai ha^−1 mesotrione [19]: 0%
% Damage at 14 DAA, no-mesotrione (IPOHE, 16 g/ha): 0%
colby [20]: 0%
% Damage at 14 DAA, 1 g ai ha^−1 mesotrione [20]: 0%
% Damage at 14 DAA, no-mesotrione (IPOHE, 31 g/ha): 0%
colby [21]: −7%
% Damage at 14 DAA, 1 g ai ha^−1 mesotrione [21]: 8%
% Damage at 14 DAA, no-mesotrione (IPOHE, 63 g/ha): 15%
colby [22]: −10%
% Damage at 14 DAA, 1 g ai ha^−1 mesotrione [22]: 52%
% Damage at 14 DAA, no-mesotrione (IPOHE, 125 g/ha): 62%
colby [23]: −13%
% Damage at 14 DAA, 1 g ai ha^−1 mesotrione [23]: 67%
% Damage at 14 DAA, no-mesotrione (IPOHE, 250 g/ha): 80%
colby [24]: 3%
% Damage at 14 DAA, 1 g ai ha^−1 mesotrione [24]: 87%
% Damage at 14 DAA, no-mesotrione (IPOHE, 500 g/ha): 83%
colby [25]: 10%
% Damage at 14 DAA, 1 g ai ha^−1 mesotrione [25]: 10%
% Damage at 14 DAA, no-mesotrione (SETFA, 16 g/ha): 0%
colby [26]: 7%
% Damage at 14 DAA, 1 g ai ha^−1 mesotrione [26]: 32%
% Damage at 14 DAA, no-mesotrione (SETFA, 31 g/ha): 25%
colby [27]: 8%
% Damage at 14 DAA, 1 g ai ha^−1 mesotrione [27]: 58%
% Damage at 14 DAA, no-mesotrione (SETFA, 63 g/ha): 50%
colby [28]: 2%
% Damage at 14 DAA, 1 g ai ha^−1 mesotrione [28]: 90%
% Damage at 14 DAA, no-mesotrione (SETFA, 125 g/ha): 88%
colby [29]: 0%
% Damage at 14 DAA, 1 g ai ha^−1 mesotrione [29]: 95%
% Damage at 14 DAA, no-mesotrione (SETFA, 250 g/ha): 95%
colby [30]: 2%
% Damage at 14 DAA, 1 g ai ha^−1 mesotrione [30]: 98%
% Damage at 14 DAA, no-mesotrione (SETFA, 500 g/ha): 97%
colby [31]: 30%
% Damage at 14 DAA, 1 g ai ha^−1 mesotrione [31]: 47%
% Damage at 14 DAA, no-mesotrione (SOLNI, 16 g/ha): 0%
colby [32]: 21%
% Damage at 14 DAA, 1 g ai ha^−1 mesotrione [32]: 60%
% Damage at 14 DAA, no-mesotrione (SOLNI, 31 g/ha): 27%
colby [33]: 18%
% Damage at 14 DAA, 1 g ai ha^−1 mesotrione [33]: 75%
% Damage at 14 DAA, no-mesotrione (SOLNI, 63 g/ha): 48%
colby [34]: 3%
% Damage at 14 DAA, 1 g ai ha^−1 mesotrione [34]: 92%
% Damage at 14 DAA, no-mesotrione (SOLNI, 125 g/ha): 87%
colby [35]: 4%
% Damage at 14 DAA, 1 g ai ha^−1 mesotrione [35]: 100%
% Damage at 14 DAA, no-mesotrione (SOLNI, 250 g/ha): 95%
colby [36]: 0%
% Damage at 14 DAA, 1 g ai ha^−1 mesotrione [36]: 100%
% Damage at 14 DAA, no-mesotrione (SOLNI, 500 g/ha): 100%
